The source of these data is PubChem BioAssay AID248 (DTP/NCI, 2004).

Structures are written as SMILES. “And” between values parts separate entries of the source, which are not always exact repeats. Equal entries are not always repeated. Inconclusive results and toxic doses are left out.

In the experiment the test system is L1210 leukemia ip in BDF1 mice, survival T/C. Nature of the experiment: NCI In Vivo Anticancer Drug Screen. Data for tumor model L1210 Leukemia (intraperitoneal) in B6D2F1 (BDF1) mice. The conditions noted are these: endpoint: mean survival time, higher = longer survival. In a few lines:
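Read-out is survival time, reported as the treated-group measurement over the vehicle-control measurement.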

Where [1] appears, read: dose: 12.5 mg/kg/injection, schedule: Q01DX009 (ip), vehicle: saline with Tween-80.
The mark [2] stands for this setting: dose: 25.0 mg/kg/injection, schedule: Q01DX009 (ip), vehicle: saline with Tween-80.
Setting [3] is: dose: 100.0 mg/kg/injection, schedule: Q01DX001 (ip), vehicle: other.
[4] abbreviates: dose: 200.0 mg/kg/injection, schedule: Q01DX001 (ip), vehicle: other.
Setting [5] is: dose: 100.0 mg/kg/injection, schedule: Q04DX003 (ip), vehicle: saline with Tween-80.
[6] abbreviates: dose: 200.0 mg/kg/injection, schedule: Q04DX003 (ip), vehicle: saline with Tween-80.
[7] abbreviates: dose: 400.0 mg/kg/injection, schedule: Q04DX003 (ip), vehicle: saline with Tween-80.
Setting [8] is: dose: 100.0 mg/kg/injection, schedule: Q04DX003 (ip), vehicle: Klucel (hydroxypropylcellulose) (HPC).
Where [9] appears, read: dose: 200.0 mg/kg/injection, schedule: Q04DX003 (ip), vehicle: Klucel (hydroxypropylcellulose) (HPC).
[10] abbreviates: dose: 400.0 mg/kg/injection, schedule: Q04DX003 (ip), vehicle: Klucel (hydroxypropylcellulose) (HPC).
Where [11] appears, read: dose: 100.0 mg/kg/injection, schedule: Q01DX001 (ip), vehicle: saline.
The mark [12] stands for this setting: dose: 75.0 mg/kg/injection, schedule: Q01DX001 (ip), vehicle: carboxymethylcellulose (CMC).
The mark [13] stands for this setting: dose: 100.0 mg/kg/injection, schedule: Q01DX009 (ip), vehicle: saline.

On to `CSc1ccc(NC(=O)Nc2ccc(N=Nc3ccccc3)cc2)cc1`, for which the T/C was 95 % of control under setting [1]; 92 % of control under setting [2]; 95 % of control (dose: 50.0 mg/kg/injection, schedule: Q01DX009 (ip), vehicle: saline with Tween-80); 87 % of control (dose: 50.0 mg/kg/injection, schedule: Q04DX003 (ip), vehicle: Klucel (hydroxypropylcellulose) (HPC)); 106 % of control (dose: 75.0 mg/kg/injection, schedule: Q01DX009 (ip), vehicle: saline with Tween-80); 89 % of control under setting [3]. Further, the T/C by setting is: (dose: 115.0 mg/kg/injection, schedule: Q01DX009 (ip), vehicle: saline with Tween-80) 92 % of control; (dose: 170.0 mg/kg/injection, schedule: Q01DX009 (ip), vehicle: saline with Tween-80) 90 % of control; under setting [4], 89 % of control.

In the case of `c1ccc2nc(C3CO3)cnc2c1` (configuration not stated), the T/C was 100 % of control under setting [5], 91 % of control under setting [6] and 99 % of control under setting [7].

Turning to `CCCCCCCCCCCCCCCCOc1ccccn1`, the T/C is 96 % of control (dose: 100.0 mg/kg/injection, schedule: Q01DX009 (ip), vehicle: Klucel (hydroxypropylcellulose) (HPC)); 92 % of control under setting [8]; 96 % of control (dose: 200.0 mg/kg/injection, schedule: Q01DX009 (ip), vehicle: Klucel (hydroxypropylcellulose) (HPC)); 95 % of control under setting [9]; 98 % of control (dose: 400.0 mg/kg/injection, schedule: Q01DX009 (ip), vehicle: Klucel (hydroxypropylcellulose) (HPC)); 90 % of control under setting [10].

Turning to `COc1ccc(CC(C(=O)O)c2ccccc2C(=O)O)cc1OC` (configuration not stated), the T/C reads like this: under setting [11], 101 % of control; (dose: 200.0 mg/kg/injection, schedule: Q01DX001 (ip), vehicle: saline) 97 % of control; (dose: 400.0 mg/kg/injection, schedule: Q01DX001 (ip), vehicle: saline) 97 % of control.

With `CCCC(CCC)=NCCCO`, the T/C is, setting by setting: under setting [12], 96 % of control; (dose: 150.0 mg/kg/injection, schedule: Q01DX001 (ip), vehicle: carboxymethylcellulose (CMC)) 102 % of control.

Take `CCCCCCCCCCCCCCCCCCSCCO`: the T/C under setting [8] is 100 % of control and 90 % of control; the T/C under setting [9] is 102 % of control; the T/C under setting [10] was 92 % of control and 100 % of control.

Regarding `NC(=O)c1cc(Cl)ccc1N`, the T/C by setting is: under setting [3], 97 % of control; under setting [4], 97 % of control; (dose: 400.0 mg/kg/injection, schedule: Q01DX001 (ip), vehicle: other) 105 % of control.

Regarding `N#CC(C#N)=CN1CCCCCC1`, the T/C runs as follows: (dose: 6.25 mg/kg/injection, schedule: Q01DX009 (ip), vehicle: saline with Tween-80) 93 % of control; (dose: 6.25 mg/kg/injection, schedule: Q04DX003 (ip), vehicle: saline with Tween-80) 96 % of control; under setting [1], 94 % of control; (dose: 12.5 mg/kg/injection, schedule: Q04DX003 (ip), vehicle: saline with Tween-80) 92 % of control; under setting [2], 89 % of control; (dose: 25.0 mg/kg/injection, schedule: Q04DX003 (ip), vehicle: saline with Tween-80) 94 % of control.

In the case of `O=C(CBr)Nc1ccccc1S(=O)(=O)F`, the T/C was 91 % of control (dose: 4.68 mg/kg/injection, schedule: Q01DX009 (ip), vehicle: carboxymethylcellulose (CMC)); 91 % of control (dose: 9.37 mg/kg/injection, schedule: Q01DX009 (ip), vehicle: carboxymethylcellulose (CMC)); 94 % of control (dose: 18.75 mg/kg/injection, schedule: Q01DX009 (ip), vehicle: carboxymethylcellulose (CMC)); 102 % of control (dose: 18.75 mg/kg/injection, schedule: Q04DX003 (ip), vehicle: carboxymethylcellulose (CMC)); 102 % of control (dose: 37.5 mg/kg/injection, schedule: Q04DX003 (ip), vehicle: carboxymethylcellulose (CMC)); 96 % of control under setting [12].

As to `Cc1cc(C)c(-c2c(C)cc(C)c([N+](=O)[O-])c2C)c(C)c1N`, the T/C is, setting by setting: (dose: 75.0 mg/kg/injection, schedule: Q01DX009 (ip), vehicle: Klucel (hydroxypropylcellulose) (HPC)) 100 % of control; (dose: 75.0 mg/kg/injection, schedule: Q04DX003 (ip), vehicle: Klucel (hydroxypropylcellulose) (HPC)) 98 % of control; (dose: 150.0 mg/kg/injection, schedule: Q01DX009 (ip), vehicle: Klucel (hydroxypropylcellulose) (HPC)) 105 % of control; (dose: 150.0 mg/kg/injection, schedule: Q04DX003 (ip), vehicle: Klucel (hydroxypropylcellulose) (HPC)) 101 % of control; (dose: 300.0 mg/kg/injection, schedule: Q01DX009 (ip), vehicle: Klucel (hydroxypropylcellulose) (HPC)) 100 % of control; (dose: 300.0 mg/kg/injection, schedule: Q04DX003 (ip), vehicle: Klucel (hydroxypropylcellulose) (HPC)) 93 % of control.

Turning to `Cc1cc2nc(CC(O)(C(F)(F)F)C(F)(F)F)oc2cc1C`, the T/C by setting is: under setting [5], 96 % of control; under setting [6], 102 % of control; under setting [7], 101 % of control.

In the case of `CNC(=O)c1ccc(NC(=O)Nc2cccc(C3=NCCN3)c2)cc1NC(=O)Nc1cccc(C2=NCCN2)c1`, the T/C is, setting by setting: (dose: 4.5 mg/kg/injection, schedule: Q01DX Z (ip), vehicle: carboxymethylcellulose (CMC)) 97 % of control; (dose: 9.0 mg/kg/injection, schedule: Q01DX Z (ip), vehicle: carboxymethylcellulose (CMC)) 113 % of control; (dose: 36.0 mg/kg/injection, schedule: Q01DX Z (ip), vehicle: carboxymethylcellulose (CMC)) 160 % of control.

As to `O=CN1CCCc2cc(C(=O)O)ccc21`, the T/C was 90 % of control under setting [13]; 93 % of control (dose: 200.0 mg/kg/injection, schedule: Q01DX009 (ip), vehicle: saline); 86 % of control (dose: 400.0 mg/kg/injection, schedule: Q01DX009 (ip), vehicle: saline).

For `CCOC(=O)/C(=C\c1cccc2ccccc12)c1ccncc1`, the T/C (dose: 100.0 mg/kg/injection, schedule: Q01DX001 (ip), vehicle: saline with Tween-80) was 89 % of control; the T/C (dose: 100.0 mg/kg/injection, schedule: Q01DX009 (ip), vehicle: saline with Tween-80) was 98 % of control; the T/C (dose: 200.0 mg/kg/injection, schedule: Q01DX001 (ip), vehicle: saline with Tween-80) is 93 % of control; the T/C (dose: 200.0 mg/kg/injection, schedule: Q01DX009 (ip), vehicle: saline with Tween-80) was 100 % of control; the T/C (dose: 400.0 mg/kg/injection, schedule: Q01DX001 (ip), vehicle: saline with Tween-80) was 96 % of control.

With `NNC(=O)c1ccncc1`, the T/C (dose: 12.5 mg/kg/injection, schedule: Q01DX009 (ip), vehicle: saline) is 98 % of control; the T/C (dose: 19.25 mg/kg/injection, schedule: Q01DX Z (ip), vehicle: carboxymethylcellulose (CMC)) is 103 % of control; the T/C (dose: 25.0 mg/kg/injection, schedule: Q01DX009 (ip), vehicle: saline) was 107 % of control; the T/C (dose: 25.0 mg/kg/injection, schedule: Q04DX003 (ip), vehicle: saline) is 108 % of control; the T/C (dose: 38.5 mg/kg/injection, schedule: Q01DX Z (ip), vehicle: carboxymethylcellulose (CMC)) is 93 % of control; the T/C (dose: 50.0 mg/kg/injection, schedule: Q01DX009 (ip), vehicle: saline) was 104 % of control. Also, the T/C was 101 % of control (dose: 50.0 mg/kg/injection, schedule: Q04DX003 (ip), vehicle: saline); 106 % of control (dose: 77.0 mg/kg/injection, schedule: Q01DX Z (ip), vehicle: carboxymethylcellulose (CMC)); 98 % of control under setting [11]; 100 % of control under setting [13]; 101 % of control (dose: 100.0 mg/kg/injection, schedule: Q04DX003 (ip), vehicle: saline); 108 % of control (dose: 154.0 mg/kg/injection, schedule: Q01DX Z (ip), vehicle: carboxymethylcellulose (CMC)). Moreover, where the note is “dose: 200.0 mg/kg/injection, schedule: Q04DX003 (ip), vehicle: saline”, the T/C is 86 % of control.

As for `NC(CSc1ccc([N+](=O)[O-])cc1Cl)C(=O)O` (configuration not stated), the T/C by setting is: (dose: 75.0 mg/kg/injection, schedule: Q01DX001 (ip), vehicle: saline) 100 % of control; (dose: 150.0 mg/kg/injection, schedule: Q01DX001 (ip), vehicle: saline) 90 % of control; (dose: 300.0 mg/kg/injection, schedule: Q01DX001 (ip), vehicle: saline) 92 % of control.
